Test results reported in EP4635500A1, “THERAPEUTIC AGENT FOR BACTERIAL INFECTION” (Sumitomo Pharma Co., Ltd., priority 2022, dated 2024).
Values after ≈ are worked out from the molar mass of the structure shown.

Columns and labels:
Citrobacter freundii = assay: MIC and MBC, broth microdilution (Example 4, Table 3); assay type: cell-based; conditions: Citrobacter freundii CDC-157 (NDM-1)
Bacteroides spp. = assay: MIC, agar dilution, anaerobic bacteria (Example 9, Tables 17, 22); assay type: cell-based; conditions: for MIC: (n)=Compound A µg/mL, 0=Compound A alone antibacterial

CC(C)(O/N=C(\C(=O)N[C@@H]1C(=O)N2C(C(=O)[O-])=C(C[n+]3ccccc3)CS[C@H]12)c1csc(N)n1)C(=O)O [CAZ, ceftazidime]
MBC (Citrobacter freundii): > 128 µg/mL | MIC (Citrobacter freundii): > 128 µg/mL

Cc1ncc([N+](=O)[O-])n1CCO [Metronidazole]
MICrange (Bacteroides spp.; Bacteroides spp.): ≤0.12 to 2 µg/mL | MIC50 (Bacteroides spp.; Bacteroides spp., read-out: MIC50): 1 µg/mL (≈ 5.84 µM) | MIC90 (Bacteroides spp.; Bacteroides spp., read-out: MIC90): 1 µg/mL (≈ 5.84 µM) | MIC (Bacteroides spp.; Bacteroides, KUB No. 2982 Bacteroidesfragilis): 1 µg/mL (≈ 5.84 µM) | MIC (Bacteroides spp.; Bacteroides, KUB No. 6464 Bacteroides vulgarus): 0.5 µg/mL (≈ 2.92 µM) | MIC (Bacteroides spp.; Bacteroides, KUB No. 6480 Bacteroides thetaioraomicron): 1 µg/mL (≈ 5.84 µM) | MIC (Bacteroides spp.; Bacteroides, KUB No. 6487 Bacteroides thetaiotamicron): 0.25 µg/mL (≈ 1.46 µM) | MIC (Bacteroides spp.; KUB No. 2977 Bacteroides thetaiotaomicron ATCC 29741): 2 µg/mL (≈ 11.7 µM) | MIC (Bacteroides spp.; KUB No. 2983 Bacteroides fragilis): 0.25 µg/mL (≈ 1.46 µM) | MIC (Bacteroides spp.; KUB No. 2984 Bacteroides thetaiotaomicron): 1 µg/mL (≈ 5.84 µM) | MIC (Bacteroides spp.; KUB No. 3003 Bacteroides fragilis ATCC 25285): 0.5 µg/mL (≈ 2.92 µM) | MIC (Bacteroides spp.; KUB No. 3009 Bacteroides ovatus): 1 µg/mL (≈ 5.84 µM) | MIC (Bacteroides spp.; KUB No. 6458 Bacteroides fragilis): 0.5 µg/mL (≈ 2.92 µM) | MIC (Bacteroides spp.; KUB No. 6459 Bacteroides stercoris): 1 µg/mL (≈ 5.84 µM) | MIC (Bacteroides spp.; KUB No. 6460 Bacteroides thetaiotaomicron): 2 µg/mL (≈ 11.7 µM) | MIC (Bacteroides spp.; KUB No. 6461 Bacteroides fragilis): 0.5 µg/mL (≈ 2.92 µM) | MIC (Bacteroides spp.; KUB No. 6463 Bacteroides fragilis): 0.5 µg/mL (≈ 2.92 µM) | MIC (Bacteroides spp.; KUB No. 6465 Bacteroides thetaiotaomicron): 2 µg/mL (≈ 11.7 µM) | MIC (Bacteroides spp.; KUB No. 6466 Bacteroides fragilis): 1 µg/mL (≈ 5.84 µM) | MIC (Bacteroides spp.; KUB No. 6467 Bacteroides fragilis): 0.5 µg/mL (≈ 2.92 µM) | MIC (Bacteroides spp.; KUB No. 6468 Bacteroides fragilis): 1 µg/mL (≈ 5.84 µM) | MIC (Bacteroides spp.; KUB No. 6469 Bacteroides fragilis): 1 µg/mL (≈ 5.84 µM) | MIC (Bacteroides spp.; KUB No. 6470 Bacteroides fragilis): 2 µg/mL (≈ 11.7 µM) | MIC (Bacteroides spp.; KUB No. 6471 Bacteroides fragilis): 1 µg/mL (≈ 5.84 µM) | MIC (Bacteroides spp.; KUB No. 6472 Bacteroides stercoris): 0.5 µg/mL (≈ 2.92 µM) | MIC (Bacteroides spp.; KUB No. 6473 Bacteroides fragilis): 1 µg/mL (≈ 5.84 µM) | MIC (Bacteroides spp.; KUB No. 6474 Bacteroides fragilis): 0.5 µg/mL (≈ 2.92 µM) | MIC (Bacteroides spp.; KUB No. 6475 Bacteroides thetaiotaomicron): 1 µg/mL (≈ 5.84 µM) | MIC (Bacteroides spp.; KUB No. 6476 Bacteroides vulgatus): 1 µg/mL (≈ 5.84 µM) | MIC (Bacteroides spp.; KUB No. 6477 Bacteroides fragilis): ≤ 0.12 µg/mL | MIC (Bacteroides spp.; KUB No. 6478 Bacteroides fragilis): 0.25 µg/mL (≈ 1.46 µM) | MIC (Bacteroides spp.; KUB No. 6481 Bacteroides fragilis): 1 µg/mL (≈ 5.84 µM) | MIC (Bacteroides spp.; KUB No. 6483 Bacteroides fragilis): 0.25 µg/mL (≈ 1.46 µM) | MIC (Bacteroides spp.; KUB No. 6484 Bacteroides fragilis): 0.5 µg/mL (≈ 2.92 µM) | MIC (Bacteroides spp.; KUB No. 6485 Bacteroides vulgatus): 0.25 µg/mL (≈ 1.46 µM) | MIC (Bacteroides spp.; KUB No. 6486 Bacteroides fragilis): 1 µg/mL (≈ 5.84 µM) | MIC (Bacteroides spp.; KUB No. 6490 Bacteroides fragilis): 0.5 µg/mL (≈ 2.92 µM) | MIC (Bacteroides spp.; KUB No. 6491 Bacteroides fragilis): 1 µg/mL (≈ 5.84 µM) | MIC (Bacteroides spp.; KUB No. 6493 Bacteroides thetaiotaomicron): 1 µg/mL (≈ 5.84 µM) | MIC (Bacteroides spp.; KUB No. 6496 Bacteroides fragilis): 1 µg/mL (≈ 5.84 µM) | MIC (Bacteroides spp.; KUB No. 6497 Bacteroides vulgatus): 1 µg/mL (≈ 5.84 µM) | MIC (Bacteroides spp.; KUB No. 6502 Bacteroides fragilis): 0.25 µg/mL (≈ 1.46 µM) | MIC (Bacteroides spp.; KUB No. 6503 Bacteroides thetaiotaomicron): 1 µg/mL (≈ 5.84 µM) | MIC (Bacteroides spp.; KUB No. 6504 Bacteroides caccae): 1 µg/mL (≈ 5.84 µM) | MIC (Bacteroides spp.; KUB No. 6506 Bacteroides thetaiotaomicron): 1 µg/mL (≈ 5.84 µM) | MIC (Bacteroides spp.; KUB No. 6509 Bacteroides fragilis): ≤ 0.12 µg/mL | MIC (Bacteroides spp.; KUB No. 6511 Bacteroides salyersiae): 1 µg/mL (≈ 5.84 µM) | MIC (Bacteroides spp.; KUB No. 6513 Bacteroides fragilis): 0.5 µg/mL (≈ 2.92 µM) | MIC (Bacteroides spp.; KUB No. 6515 Bacteroides thetaiotaomicron): 1 µg/mL (≈ 5.84 µM) | MIC (Bacteroides spp.; KUB No. 6518 Bacteroides fragilis): 0.5 µg/mL (≈ 2.92 µM) | MIC (Bacteroides spp.; KUB No. 6522 Bacteroides fragilis): 1 µg/mL (≈ 5.84 µM) | MIC (Bacteroides spp.; KUB No. 6523 Bacteroides fragilis): 1 µg/mL (≈ 5.84 µM) | MIC (Bacteroides spp.; KUB No. 6525 Bacteroides fragilis): 1 µg/mL (≈ 5.84 µM) | MIC (Bacteroides spp.; KUB No. 6527 Bacteroides thetaiotaomicron): 1 µg/mL (≈ 5.84 µM) | MIC (Bacteroides spp.; KUB No. 6530 Bacteroides thetaiotaomicron): 1 µg/mL (≈ 5.84 µM) | MIC (Bacteroides spp.; KUB No. 6535 Bacteroides fragilis): 0.5 µg/mL (≈ 2.92 µM) | MIC (Bacteroides spp.; KUB No. 6544 Bacteroides vulgatus): 1 µg/mL (≈ 5.84 µM) | MIC (Bacteroides spp.; KUB No. 6545 Bacteroides thetaiotaomicron): 0.5 µg/mL (≈ 2.92 µM) | MIC (Bacteroides spp.; KUB No. 6556 Bacteroides vulgatus): 0.5 µg/mL (≈ 2.92 µM)
